Source: publication PMC12630027, “RALGEF inhibitors suppress RAS-driven pancreatic cancer and metastasis” (The Journal of Biological Chemistry, 2025)
pKd: −log10 of the molar value.

Columns and labels:
RGL2 (also known as Rlf) = target: T1, RGL2 (also known as Rlf) (Homo sapiens, UniProt O15211); assay: co-immunoprecipitation of H-RAS12V from mixed HEK-293 lysates, Western blot; format: biochemical; settings: 20 μM (figure legend; 10 μM in methods), HA-H-RAS12V partner, pH 7.5, room temperature; inhibition of RAS/RALGEF complex
T1 construct: full length, GFP-tagged, plasmid gift of CJ Der, expressed in HEK-293, lysate

GFP-tagged RALGDS = target: T2, GFP-tagged RALGDS (Homo sapiens, UniProt Q12967); assay: as above; format: biochemical; settings: 20 μM (figure legend; 10 μM in methods), HA-H-RAS12V partner, pH 7.5, room temperature; inhibition of RAS/RALGEF complex
T2 construct: full length, GFP-tagged, plasmid gift of CJ Der, expressed in HEK-293, lysate

[1] = target: T3, full-length RALGDS recombinant protein (Homo sapiens, UniProt Q12967); assay: analytical ultracentrifugation; format: binding
T3 construct: full length, purified recombinant, purchased from Genscript Biotech
T3 sequence (Q12967 1-914): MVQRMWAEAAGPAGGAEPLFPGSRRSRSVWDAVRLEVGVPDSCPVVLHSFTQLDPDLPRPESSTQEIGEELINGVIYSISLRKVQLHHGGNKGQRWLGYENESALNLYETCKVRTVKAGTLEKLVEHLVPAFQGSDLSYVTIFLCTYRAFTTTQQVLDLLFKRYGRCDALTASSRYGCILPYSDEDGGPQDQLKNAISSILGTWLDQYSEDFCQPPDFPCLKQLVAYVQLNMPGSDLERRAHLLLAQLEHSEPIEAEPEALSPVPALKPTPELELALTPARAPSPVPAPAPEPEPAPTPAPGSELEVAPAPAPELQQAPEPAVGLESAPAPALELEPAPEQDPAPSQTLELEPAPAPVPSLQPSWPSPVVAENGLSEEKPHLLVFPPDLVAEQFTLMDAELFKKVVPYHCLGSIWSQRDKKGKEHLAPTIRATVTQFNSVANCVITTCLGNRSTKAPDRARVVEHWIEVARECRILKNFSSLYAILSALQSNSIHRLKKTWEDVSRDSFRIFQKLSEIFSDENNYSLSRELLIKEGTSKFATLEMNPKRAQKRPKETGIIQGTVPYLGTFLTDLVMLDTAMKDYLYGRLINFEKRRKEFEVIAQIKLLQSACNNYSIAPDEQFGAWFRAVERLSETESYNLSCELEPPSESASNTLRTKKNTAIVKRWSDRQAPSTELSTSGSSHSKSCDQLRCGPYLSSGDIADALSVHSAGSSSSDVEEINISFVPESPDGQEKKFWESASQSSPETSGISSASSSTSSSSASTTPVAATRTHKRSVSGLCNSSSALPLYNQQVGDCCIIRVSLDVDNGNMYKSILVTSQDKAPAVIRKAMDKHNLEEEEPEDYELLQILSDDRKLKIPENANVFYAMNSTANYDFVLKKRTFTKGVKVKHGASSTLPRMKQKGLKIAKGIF

RGL3 = target: T4, RGL3 (Homo sapiens, UniProt Q3MIN7); assay: co-immunoprecipitation of H-RAS12V from mixed HEK-293 lysates, Western blot; format: biochemical; settings: 20 μM (figure legend; 10 μM in methods), HA-H-RAS12V partner, pH 7.5, room temperature; inhibition of RAS/RALGEF complex
T4 construct: Flag-tagged, construct purchased from Genscript, expressed in HEK-293, lysate

[2] = target: T5, isolated RA domain of RALGDS; assay: microscale thermophoresis, one-site model; settings: 50 nM fluorescently labelled RALGDS RA domain, 5% DMSO; average of four experiments; compound solubility may have compromised the assay; read-out: binding affinity
T5 construct: isolated RAS association (RA) domain, C-terminal; fluorescently labelled
Description: microscale thermophoresis, one-site model on isolated RA domain of RALGDS | obtained binding affinities in the low μM range

| SMILES | co-immunoprecipitation of H-RAS12V from mixed HEK-293 lysates, Western blot (RGL2 (also known as Rlf)) | co-immunoprecipitation of H-RAS12V from mixed HEK-293 lysates, Western blot (GFP-tagged RALGDS) | pKd [1] | co-immunoprecipitation of H-RAS12V from mixed HEK-293 lysates, Western blot (RGL3) | pKd [2] |
| --- | --- | --- | --- | --- | --- |
| COc1cccc(CNc2nc(CNCc3cccc(F)c3)nc3sc(C)c(C)c23)c1 [C4-180] | C4-180 was noticably better at suppressing the interaction of RAS with RALGDS and RGL2 | C4-180 was noticably better at suppressing the interaction of RAS with RALGDS and RGL2 | ~6.00 | C4-180 could act on RALGDS, RGL2 and RGL3 family members | 5.59 |
| COc1cccc(CNc2nc(CN(C)Cc3cccc(OC)c3)nc3sc(C)c(C)c23)c1 [C4] | The complex formation was suppressed. | The complex formation was suppressed. |  |  |  |
